Reference: patent US5663335A, “Immunosuppressive compounds and methods” (priority 1996, dated 1997)
Entries after “also recorded” stand apart in the source; their conditions may differ. Where a name gives a salt, the structure may show the parent alone.

Key:
[1] = Cytotoxicity by MTT assay, reported with the IL-1 assay (Table I); format: cell-based; conditions: mouse, thymocytes, cytotoxic when toxicity greater than 25%
Description: Potential cytotoxicity of the test samples was assessed by the measurement of their effect on the reduction of MTT (3-[4,5-Dimethylthiazole-2-yl]-2,5-diphenyltetrazolium bromide) by cultured cells. MTT, a yellow-colored compound, is reduced by mitochondrial enzymes to form the purple crystalline reduction product formazane, providing an index of cellular respiration on viable cells as well as a sensitive assay for cytotoxicity (Mossmann, 1983).
The cytotoxicity was assessed in cultured human PBMC and mouse thymocytes. A stock solution of MTT (Sigma) at 5 mg/ml in phosphate buffered saline, pH 7.4, was prepared and stored in the dark at 4° C. PBMCs or thymocytes were cultured with various concentrations of test samples in flatbottom 96-well tissue culture plates (Costar) under the same conditions as those described above, but the stimulants (X-35 or IL-1+PHA) were replaced by appropriate medium. Untreated cells with medium alone and without the test samples were used as controls. After incubation for 21 hours, 25 μl of MTT solution was added to each well. After an additional three hours of incubation, the experiment was terminated by addition of a solution of 10% sodium dodecyl sulfate in 0.01N HCl. Following overnight incubation at 37° C. to solubilize the formazane crystals, optical density was determined at 570-650 nm in microplate reader. […]

[2] = Stability in blood serum (TLC); format: in vitro ADME; conditions: rat serum, 37° C; for stability in serum, 3 to 5 minutes: first 3 to 5 minutes
Description: The stability of triptolide succinate in blood serum was determined as detailed in Example 10B. In this study, a solution of triptolide succinate (YM-262, free acid) in DMSO was mixed with rat serum and incubated at 37° C. The mixture was assayed periodically by thin layer chromatography (TLC) to follow the hydrolysis of the triptolide succinate over time.
A solution of triptolide succinate (free acid; YM-262) in DMSO was made at a concentration of 25 mg/ml, and 0.1 ml of this solution was mixed with 0.5 ml of rat serum. The mixture was incubated at 37° C. Aliquots of the mixture were taken at 1, 3, 5, 15, 45 minutes and 18 hours and analyzed by thin layer chromatography (TLC). The TLC plates were developed in 1:5 CH2 CI2 /Et2 O. After development, the plates were treated with iodine vapor and examined under a UV lamp. Triptolide and triptolide succinate were used as reference compounds (Rf =0.60), and 0.45, respectively).

[3] = test system: rat heart allograft rejection (Brown Norway donor, Lewis recipient); assay: Heterotopic cardiac allograft survival (heart transplantation model); format: in vivo; conditions: for mean survival time: intraperitoneal, daily, day -1 to day 14; for mean survival time compared with underivatized triptolide: equimolar doses: YM-273 0.40 mg/kg, YM-274 0.33 mg/kg, T10 0.25 mg/kg, i.p.
Text: Treatment of transplantation rejection, in accordance with the invention, is illustrated for rejection of an allograft by the heart transplantation model used in Example 14. The method involves a well-characterized rat model system (Oho and Lindsey, 1969) in which a transplanted heart is attached to the abdominal great vessels of an allogeneic recipient animal, and the viability of the transplanted heart is gauged by the heart's ability to beat in the recipient animal.
In one study, the animals were administered by intraperitoneal injections, from one day preceding to 14 days following heart transplantation, either control solution (5% ethanol, 10 ml/kg), triptolide (designated as T10), or with two concentrations each of YM-273 and YM-274. There were three animals in each group, except for the control group in which five animals were used.
Heterotopic whole heart transplantation was performed according to the standard method (Oho and Lindsey, 1969). The donors (Brown Norway rats, 200-255 g, Charles River, Wilmington, Mass.) and recipients (Adult male Lewis rats, 225-275 g, Charles River) were anesthetized with sodium pentobarbital (40 mg/kg). Following adequate donor anticoagulation using heparin, the heart graft was removed and stored at 4° C. in PhysioSol Irrigation Solution (Abbott Laboratories, N. Chicago, Ill.). The ascending aorta and pulmonary artery were transected, and the vena cava and pulmonary veins were ligated. […] The cold ischemic time of all the cardiac grafts was less than 45 minutes. Graft heartbeat was monitored by abdominal palpation. The period of functional graft survival was measured as the number of days during which cardiac graft contractions could be detected by abdominal palpation. Results were confirmed by direct visualization at laparotomy.
Heart transplant recipient animals prepared as described above (3-5 animals/group) were treated with (i) control solution (5% ethanol, 10 ml/kg), (ii) YM-273 at 0.10 mg/kg and 0.40 mg/kg (FIG. 5A), (iii) YM-274 at 0.084 and 0.33 mg/kg (FIG. 5B), and (iv) and T10 (triptolide) 0.25 mg/kg (FIG. 6). In addition to showing the results for T10, FIG. 6 repeats the results from FIGS. 5A-5B for YM-273 and YM-274 at 0.40 and 0.33 mg/kg, respectively, such that their concentrations were equimolar relative to T10. All compounds were administered intraperitoneally. Treatment started on the day prior to surgery and continuing daily until postoperative day 14, or until the end of allograft survival.

[4] = Stability in water (D2O solution, 1H NMR); format: physicochemical; conditions: 3 mg/ml, room temperature, Succinate Sodium Salt
Description: Sodium triptolide succinate, designated YM-274, was dissolved in D2 O, and the aqueous solution was stored at room temperature.
A solution of sodium triptolide succinate (YM-274) in D2 O was prepared at a concentration of 3 mg/ml and stored at room temperature. The solution was analyzed by ^1 H NMR at intervals of 1, 3, 5, 15, 45, 90, 180 minutes; 1, 7, 14 days; and 1, 2, 3, and 5 months.

Question: With `CC(C)C12OC1C1OC13C1(C)CCC4=C(COC4=O)C1CC1OC13C2OC(=O)CCC(=O)O` (stereo not drawn) [YM-262, Triptolide Succinate] as the compound, how does the MCC [1] read?
Answer: > 12.5 µg/mL

Question: And the “time for hydrolysis of the triptolide ester to free triptolide in serum” value [2]?
Answer: less than an hour

Question: What about the “stability in serum, 15 minutes” value ([2]; 15 minutes) of the same compound?
Answer: the triptolide succinate spot was gone

Question: What about the “stability in serum, 3 to 5 minutes” value [2] of the same compound?
Answer: most of the triptolide succinate remained

Question: And the “stability in serum, 3 to 5 minutes” value ([2]; listed as triptolide succinate)?
Answer: only triptolide succinate was detected by TLC

Question: With `CC(C)C12OC1C1OC13C1(C)CCC4=C(COC4=O)C1CC1OC13C2OC(=O)CCC(=O)O` (stereo not drawn) [YM-273, Triptolide Succinate Tris Salt] as the compound, how does the mean survival time ([3]; 0.1 mg/kg) read?
Answer: 7 days

Question: And the mean survival time ([3]; 0.4 mg/kg)?
Answer: 24 days

Question: And the “mean survival time compared with underivatized triptolide” value [3]?
Answer: somewhat better

Question: With `CC(C)C12OC1C1OC13C1(C)CCC4=C(COC4=O)C1CC1OC13C2OC(=O)CCC(=O)O` (stereo not drawn) [YM-274, Triptolide Succinate Sodium Salt] as the compound, how does the mean survival time ([3]; 0.0837 mg/kg) read?
Answer: 10 days

Question: What about the “mean survival time compared with underivatized triptolide” value ([3]; Succinate Sodium Salt) of the same compound?
Answer: substantially better

Question: What about the “stability in D2O, five months” value ([4]; five months) of the same compound?
Answer: Some decomposition was apparent after 5 months; also recorded: some decomposition was observed

Question: And the “stability in D2O, up to three months” value ([4]; three months)?
Answer: no appreciable change in the NMR spectrum during the first three months; also recorded: unchanged after three months in solution
